% of control, % of inhibition and dTM data for 6 molecules are collected here from ChEMBL document CHEMBL5465560, “Selectivity Literature for EUbOPEN Chemogenomic Library” (2024).

Each structure is given as a SMILES string.

Assay [1] concerns the target T1, Homeodomain-interacting protein kinase 4 (Homo sapiens) (UniProt Q8NE63).
T1 sequence (whole entry): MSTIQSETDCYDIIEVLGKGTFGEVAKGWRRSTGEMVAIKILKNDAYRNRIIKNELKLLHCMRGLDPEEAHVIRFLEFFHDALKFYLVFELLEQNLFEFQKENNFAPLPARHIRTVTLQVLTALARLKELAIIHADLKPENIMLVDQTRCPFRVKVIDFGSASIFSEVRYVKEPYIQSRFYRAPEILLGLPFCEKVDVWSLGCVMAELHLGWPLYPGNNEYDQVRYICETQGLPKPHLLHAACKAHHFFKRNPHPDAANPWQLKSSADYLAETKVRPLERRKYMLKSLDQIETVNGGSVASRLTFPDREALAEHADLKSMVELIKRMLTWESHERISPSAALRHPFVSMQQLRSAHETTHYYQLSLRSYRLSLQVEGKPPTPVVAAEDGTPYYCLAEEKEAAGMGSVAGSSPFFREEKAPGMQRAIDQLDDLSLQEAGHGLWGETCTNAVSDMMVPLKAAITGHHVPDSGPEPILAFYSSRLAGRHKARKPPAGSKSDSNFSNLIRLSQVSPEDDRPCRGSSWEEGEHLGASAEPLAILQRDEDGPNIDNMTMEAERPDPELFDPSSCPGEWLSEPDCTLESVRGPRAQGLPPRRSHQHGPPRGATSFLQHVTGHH
As to the kind of experiment: Selectivity interaction (KinomeScan (DiscoverX)) EUB0001079a HIPK4. Conditions: at 1 µM.

In assay [2] the target is T2, Serine/threonine-protein kinase Chk1 (Homo sapiens) (UniProt O14757).
T2 sequence (whole entry): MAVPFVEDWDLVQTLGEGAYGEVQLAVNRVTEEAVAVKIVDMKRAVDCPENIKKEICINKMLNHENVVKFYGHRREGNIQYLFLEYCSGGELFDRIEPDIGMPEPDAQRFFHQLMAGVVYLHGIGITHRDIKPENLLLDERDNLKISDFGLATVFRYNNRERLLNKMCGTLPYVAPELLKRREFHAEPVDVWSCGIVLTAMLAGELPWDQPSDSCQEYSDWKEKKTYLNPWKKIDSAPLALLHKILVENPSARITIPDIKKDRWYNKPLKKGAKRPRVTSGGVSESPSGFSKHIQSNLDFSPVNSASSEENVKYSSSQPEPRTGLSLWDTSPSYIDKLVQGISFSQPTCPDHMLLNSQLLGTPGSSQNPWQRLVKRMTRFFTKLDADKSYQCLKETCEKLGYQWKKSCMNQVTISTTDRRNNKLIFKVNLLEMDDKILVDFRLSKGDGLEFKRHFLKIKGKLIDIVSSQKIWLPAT
As to the kind of experiment: Selectivity interaction (Kinase panel (literature)) EUB0001199aCl CHEK1. Conditions: at 1 µM.

The target of assay [3] is T3, Phosphatidylinositol 4,5-bisphosphate 3-kinase catalytic subunit delta isoform (Homo sapiens) (UniProt O00329).
T3 sequence (whole entry): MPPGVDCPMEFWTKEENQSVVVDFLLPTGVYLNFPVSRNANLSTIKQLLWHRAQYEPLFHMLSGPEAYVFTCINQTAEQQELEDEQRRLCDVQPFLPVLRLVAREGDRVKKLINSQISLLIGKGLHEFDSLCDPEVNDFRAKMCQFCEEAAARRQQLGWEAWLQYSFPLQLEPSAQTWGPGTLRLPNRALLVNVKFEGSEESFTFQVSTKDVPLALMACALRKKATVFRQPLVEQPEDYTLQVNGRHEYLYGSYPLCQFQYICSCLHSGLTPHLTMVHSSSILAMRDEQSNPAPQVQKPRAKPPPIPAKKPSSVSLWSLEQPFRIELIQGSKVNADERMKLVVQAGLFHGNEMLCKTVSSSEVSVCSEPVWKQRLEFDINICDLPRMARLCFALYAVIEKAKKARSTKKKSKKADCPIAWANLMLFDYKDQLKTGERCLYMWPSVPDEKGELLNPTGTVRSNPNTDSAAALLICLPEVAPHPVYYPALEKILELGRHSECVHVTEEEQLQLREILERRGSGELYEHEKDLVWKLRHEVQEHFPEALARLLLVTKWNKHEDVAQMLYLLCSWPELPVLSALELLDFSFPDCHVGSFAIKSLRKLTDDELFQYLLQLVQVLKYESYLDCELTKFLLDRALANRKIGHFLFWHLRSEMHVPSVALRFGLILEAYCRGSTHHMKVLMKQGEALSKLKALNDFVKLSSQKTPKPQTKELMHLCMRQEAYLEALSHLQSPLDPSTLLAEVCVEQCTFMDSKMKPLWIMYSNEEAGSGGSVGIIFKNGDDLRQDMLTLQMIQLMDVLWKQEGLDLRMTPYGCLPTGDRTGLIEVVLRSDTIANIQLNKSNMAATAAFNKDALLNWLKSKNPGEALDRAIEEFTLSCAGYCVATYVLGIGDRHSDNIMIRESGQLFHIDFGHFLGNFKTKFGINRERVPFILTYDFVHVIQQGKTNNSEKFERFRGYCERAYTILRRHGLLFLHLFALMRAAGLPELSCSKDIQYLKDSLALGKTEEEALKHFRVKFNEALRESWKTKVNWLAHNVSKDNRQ
As to the kind of experiment: Selectivity interaction (ActivX KiNativ screen (kinase selectivity in THP-1 cell lysates)) EUB0000639a PIK3CD. In kind it is subcellular. Conditions: lysate, at 0.2 µM.

Assay [4] addresses T4, Aurora kinase A (Homo sapiens) (UniProt O14965).
T4 sequence (whole entry): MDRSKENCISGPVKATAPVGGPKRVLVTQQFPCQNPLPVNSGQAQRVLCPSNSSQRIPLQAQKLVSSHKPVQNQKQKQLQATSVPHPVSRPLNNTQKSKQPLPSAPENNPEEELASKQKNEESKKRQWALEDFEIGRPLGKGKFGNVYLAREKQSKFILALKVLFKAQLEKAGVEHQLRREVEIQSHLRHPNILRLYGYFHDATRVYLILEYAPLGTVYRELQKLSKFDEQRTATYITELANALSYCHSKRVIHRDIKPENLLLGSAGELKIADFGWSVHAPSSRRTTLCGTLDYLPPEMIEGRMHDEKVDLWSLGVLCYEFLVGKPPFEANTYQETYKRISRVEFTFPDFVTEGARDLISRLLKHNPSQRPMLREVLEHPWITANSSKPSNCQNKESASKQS
As to the kind of experiment: Selectivity interaction (Kinase panel (DSF assay)) EUB0001559a STK6.

Assay [5] deals with Serine/threonine-protein kinase NIM1 (Homo sapiens, UniProt Q8IY84). As to the kind of experiment: Selectivity interaction (KinomeScan (DiscoverX)) EUB0000045b NIM1K.
Sequence of Serine/threonine-protein kinase NIM1 (Q8IY84 whole entry): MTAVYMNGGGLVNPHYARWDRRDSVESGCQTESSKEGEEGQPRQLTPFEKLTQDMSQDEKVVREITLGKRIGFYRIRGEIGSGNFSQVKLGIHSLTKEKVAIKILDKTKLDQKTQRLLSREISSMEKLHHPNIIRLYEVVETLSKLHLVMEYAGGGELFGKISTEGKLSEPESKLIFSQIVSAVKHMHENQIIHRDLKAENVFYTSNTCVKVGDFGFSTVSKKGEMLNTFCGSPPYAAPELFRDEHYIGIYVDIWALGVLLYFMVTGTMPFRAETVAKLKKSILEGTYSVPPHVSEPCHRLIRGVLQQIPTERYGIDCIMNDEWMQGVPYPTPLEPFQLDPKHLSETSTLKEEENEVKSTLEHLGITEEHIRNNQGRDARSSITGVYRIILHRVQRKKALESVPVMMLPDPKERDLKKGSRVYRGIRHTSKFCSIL
The target of assay [6] is Serine/threonine-protein kinase PAK 2 (Homo sapiens) (UniProt Q13177). In words: Selectivity interaction (KinomeScan (DiscoverX)) EUB0000618a PAK2. Conditions: at 10 µM.
Sequence of Serine/threonine-protein kinase PAK 2 (Homo sapiens) (Q13177 whole entry): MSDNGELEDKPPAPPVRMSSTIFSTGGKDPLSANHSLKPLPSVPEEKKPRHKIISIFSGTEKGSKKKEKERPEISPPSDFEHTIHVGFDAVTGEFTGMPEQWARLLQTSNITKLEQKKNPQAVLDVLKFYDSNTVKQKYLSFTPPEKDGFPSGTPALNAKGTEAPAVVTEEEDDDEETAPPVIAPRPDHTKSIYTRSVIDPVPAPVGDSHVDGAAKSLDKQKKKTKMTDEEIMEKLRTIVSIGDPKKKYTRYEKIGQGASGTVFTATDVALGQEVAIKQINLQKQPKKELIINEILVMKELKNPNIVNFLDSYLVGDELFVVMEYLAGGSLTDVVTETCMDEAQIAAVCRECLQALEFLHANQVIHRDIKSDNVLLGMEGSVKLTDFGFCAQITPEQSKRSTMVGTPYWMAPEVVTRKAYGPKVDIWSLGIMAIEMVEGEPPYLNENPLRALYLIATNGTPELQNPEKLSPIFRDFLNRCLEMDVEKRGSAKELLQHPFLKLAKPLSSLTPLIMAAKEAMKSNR

In assay [1], `Nc1cnc(N2CCc3cc(S(=O)(=O)Nc4c(F)cc(Cl)cc4F)cc(N4CCCC4=O)c32)nc1` [TP-020n] displayed a % of control of 100%.

`CN1Cc2nccc(-c3cn(C)nc3-c3ccc(F)cc3)c2C1=O` returned a % of inhibition in assay [2] of 7%.

For the molecule `CC[C@@H]1[C@H](F)C(=O)N[C@@H]1COc1nccc2cc(C(N)=O)c(OC)cc12` [ZIMLOVISERTIB], the % of inhibition in assay [3] came to 4.7%.

`CN(C(=O)c1cnn2cccnc12)c1cc2c(cc1N1CCOCC1)C(=O)N(C[C@@H](F)C(C)(C)O)C2` gave a dTM in assay [4] of -0.6 K.

In the case of `C=CC(=O)Nc1cc(-n2c(=O)ccc3cnc4ccc(-c5ccc(NS(C)(=O)=O)cc5)cc4c32)ccc1C`, the % of control in assay [5] (at 1 µM) and in assay [5] (at 10 µM) was 100% each time.

In assay [6], `O[C@H]1CC[C@H](Nc2ncc3nc(Nc4c(F)cc(F)cc4F)n([C@H]4CCOC4)c3n2)CC1` gave a % of control of 100%.
